# Test results published in patent publication US11970479B2, “3-(1H-pyrazol-4-yl)pyridine allosteric modulators of the M4 muscarinic acetylcholine receptor” (Merck Sharp & Dohme LLC, priority 2018, dated 2024).
# Biological target: T1, human M4 muscarinic acetylcholine receptor (Homo sapiens, UniProt P08173)
# T1 construct: expressed in transfected cells
# T1 sequence (P08173 1-479): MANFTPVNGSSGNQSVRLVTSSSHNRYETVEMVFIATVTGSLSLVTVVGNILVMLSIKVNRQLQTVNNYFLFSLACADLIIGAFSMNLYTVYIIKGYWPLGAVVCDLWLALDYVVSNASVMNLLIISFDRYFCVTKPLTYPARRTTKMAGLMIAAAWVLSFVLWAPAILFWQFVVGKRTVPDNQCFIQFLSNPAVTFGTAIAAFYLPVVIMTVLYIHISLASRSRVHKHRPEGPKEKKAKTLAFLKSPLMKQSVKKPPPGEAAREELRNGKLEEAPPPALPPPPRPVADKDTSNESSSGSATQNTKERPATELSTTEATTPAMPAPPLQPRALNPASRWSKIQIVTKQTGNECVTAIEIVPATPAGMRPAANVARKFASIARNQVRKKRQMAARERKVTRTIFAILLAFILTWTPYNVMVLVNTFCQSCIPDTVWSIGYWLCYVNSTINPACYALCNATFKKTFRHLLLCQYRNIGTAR
# Experiment: human FLIPR-based M4 PAM assay (CHO-K1 cells with human M4 receptor and Gαqi5, calcium dye fluorescence, EC20 acetylcholine)
# Format: cell-based
# Details: inflection point (IP) of the dose response curve, human M4 receptor/Gαqi5, acetylcholine at 20% of maximum response, read-out: M4PAM Hu IP
# Experimental: (§1) In a typical experiment the M4 muscarinic acetylcholine receptor modulating activity of the compounds of the present invention was determined in accordance with the following experimental method. CHO-K1 cells stably transfected with human M4 receptor and chimeric G-protein Gαqi5 (Coward P, et al., Analytical Biochemistry, 270:242-248 (1999)) are thawed from liquid N2 storage, resuspended in growth medium, plated in black, clear bottom 384 well plates, and incubated 16-20 hours at 37° C., 5% CO2. On the day of assay, growth medium is removed, the cells are washed 2 times with wash buffer, and cells are incubated in dye loading buffer at 37° C., 5% CO2 for ˜1 hour. Following dye loading the cell plates are placed in a FLIPR Tetra instrument and while monitoring dye fluorescence (excitation […]), 10 uL of test substance at increasing concentrations is added, and fluorescence values are recorded for 4 min. Next, 10 uL of acetylcholine is added (final concentration calculated so as to achieve 20% of the maximum acetycholine response), and the fluorescence reading is continued for 3.5 min. In some cases, a third addition of acetylcholine (final concentration calculated to achieve 70% of the maximal acetylcholine response) is performed. The resulting dose response curves are fit to a 4 parameter logistic equation and the final result is determined as the inflection point (IP) of the curve
# as §1, with “CHO-K1” for “In a typical experiment the M4 muscarinic acetylcholine receptor modulating activity of the compounds of the present invention was determined in accordance with the following experimental method. CHO-K1”, “Gαqi5” for “Gαqi5 (Coward P, et al., Analytical Biochemistry, 270:242-248 (1999))”, “performed.” for “performed. The resulting dose response curves are fit to a 4 parameter logistic equation and the final result is determined as the inflection point (IP) of the curve”
row,SMILES,EC50
1,"COc1cc2ccc(-c3nc(Cl)c(C)cc3-c3cnn(CC(C)(C)OC)c3)cc2nn1 [Example 31, 7-{6-chloro-3-[1-(2-methoxy-2-methylpropyl)-1H-pyrazol-4-yl]-5-methylpyridin-2-yl}-3-methoxycinnoline]",76 nM
2,"COc1cc2ccc(-c3nc(C#N)c(C)cc3-c3cnn(CCC(C)(C)OC)c3)cc2nn1 [Example 32, 6-(3-methoxycinnolin-7-yl)-5-[1-(3-methoxy-3-methylbutyl)-1H-pyrazol-4-yl]-3-methylpyridine-2-carbonitrile]",113 nM
3,"COc1cc2ccc(-c3nc(C#N)c(C)cc3-c3cnn(CC(C)(C)OC)c3)cc2nn1 [Example 33, 6-(3-methoxycinnolin-7-yl)-5-[1-(2-methoxy-2-methylpropyl)-1H-pyrazol-4-yl]-3-methylpyridine-2-carbonitrile]",84 nM
4,"COc1cc2ccc(-c3nc(C)c(C)cc3-c3cnn(CC(C)(C)OC)c3)cc2nn1 [Example 35, 3-methoxy-7-{3-[1-(2-methoxy-2-methylpropyl)-1H-pyrazol-4-yl]-5,6-dimethylpyridin-2-yl}cinnoline]",187 nM
5,"CC(C)(C)Cn1cc(-c2ccc(C#N)nc2-c2ccc3cccnc3c2)cn1 [Example 37, 5-[1-(2,2-dimethylpropyl)-1H-pyrazol-4-yl]-6-quinolin-7-ylpyridine-2-carbonitrile]",25 nM
6,"COc1cc2ccc(-c3nc(C#N)ccc3-c3cnn(CC(C)(C)C)c3)cc2nn1 [Example 38, 5-[1-(2,2-dimethylpropyl)-1H-pyrazol-4-yl]-6-(3-methoxycinnolin-7-yl)pyridine-2-carbonitrile]",41 nM
7,"CC(C)(C)Cn1cc(-c2ccc(C#N)nc2-c2cnc3cccnc3c2)cn1 [Example 40, 5-[1-(2,2-dimethylpropyl)-1H-pyrazol-4-yl]-6-(1,5-naphthyridin-3-yl)pyridine-2-carbonitrile]",208 nM
8,"CC(C)(C)Cn1cc(-c2ccc(C#N)nc2-c2ccc3cc(F)cnc3c2)cn1 [Example 41, 5-[1-(2,2-dimethylpropyl)-1H-pyrazol-4-yl]-6-(3-fluoroquinolin-7-yl)pyridine-2-carbonitrile]",39 nM
9,"CC(C)(C)Cn1cc(-c2ccc(C#N)nc2-c2ccc3cc(Cl)nnc3c2)cn1 [Example 42, 6-(3-chlorocinnolin-7-yl)-5-[1-(2,2-dimethylpropyl)-1H-pyrazol-4-yl]pyridine-2-carbonitrile]",47 nM
10,"CC(C)(C)Cn1cc(-c2ccc(C#N)nc2-c2ccc3ccnnc3c2)cn1 [Example 43, 6-cinnolin-7-yl-5-[1-(2,2-dimethylpropyl)-1H-pyrazol-4-yl]pyridine-2-carbonitrile]",112 nM
11,"N#Cc1ccc(-c2cnn(CC3(C(F)(F)F)CC3)c2)c(-c2ccc3cccnc3c2)n1 [Example 44, 6-quinolin-7-yl-5-(1-{[1-(trifluoromethyl)cyclopropyl]methyl}-1H-pyrazol-4-yl)pyridine-2-carbonitrile]",61 nM
12,"N#Cc1nc(-c2ccc3cccnc3c2)c(-c2cnn(CC3(C(F)(F)F)CC3)c2)cc1F [Example 47, 3-fluoro-6-quinolin-7-yl-5-(1-{[1-(trifluoromethyl)cyclopropyl]methyl}-1H-pyrazol-4-yl)pyridine-2-carbonitrile]",88 nM
13,"COc1ccc(-c2cnn(CCC(C)C)c2)c(-c2ccc3cccnc3c2)n1 [Example 48, 7-{6-methoxy-3-[1-(3-methylbutyl)-1H-pyrazol-4-yl]pyridine-2-yl}quinoline]",220 nM
14,"COc1ccnc(-c2ccc3cccnc3c2)c1-c1cnn(CCC(C)C)c1 [Example 51, 7-{4-methoxy-3-[1-(3-methylbutyl)-1H-pyrazol-4-yl]pyridin-2-yl}quinoline]",414 nM
15,"CC(C)CCn1cc(-c2cc(Cl)cnc2-c2ccc3cccnc3c2)cn1 [Example 52, 7-{5-chloro-3-[1-(3-methylbutyl)-1H-pyrazol-4-yl]pyridin-2-yl}quinoline]",145 nM
16,"COc1cc2ccc(-c3nc(C(F)F)ccc3-c3cnn(CC(C)(C)C)c3)cc2nn1 [Example 54, 7-{6-(difluoromethyl)-3-[1-(2,2-dimethylpropyl)-1H-pyrazol-4-yl]pyridin-2-yl}-3-methoxycinnoline]",53 nM
17,"CC(C)(C)Cn1cc(-c2cc(F)cnc2-c2ccc3cccnc3c2)cn1 [Example 55, 7-{3-[1-(2,2-dimethylpropyl)-1H-pyrazol-4-yl]-5-fluoropyridin-2-yl}quinoline]",108 nM
18,"Cc1nc(-c2ccc3cccnc3c2)c(-c2cnn(CC3(C(F)(F)F)CC3)c2)cc1C#N [Example 56, 2-methyl-6-quinolin-7-yl-5-(1-{[1-(trifluoromethyl)cyclopropyl]methyl}-1H-pyrazol-4-yl)pyridine-3-carbonitrile]",275 nM
19,"COc1cc2ccc(-c3nc(C)c(C#N)cc3-c3cnn(CC4(C(F)(F)F)CC4)c3)cc2nn1 [Example 57, 6-(3-methoxycinnolin-7-yl)-2-methyl-5-(1-{[1-(trifluoromethyl)cyclopropyl]methyl}-1H-pyrazol-4-yl)pyridine-3-carbonitrile]",243 nM
20,"CC(C)(C)Cn1ncc(-c2ccc(C#N)nc2-c2ccc3cccnc3c2)c1F [Example 58, 5-[1-(2,2-dimethylpropyl)-5-fluoro-1H-pyrazol-4-yl]-6-quinolin-7-ylpyridine-2-carbonitrile]",51 nM

# The remaining molecules from weak to strong by EC50, led by results:
row,EC50,SMILES
1,188 nM,"Cc1ccnc(-c2ccc3cccnc3c2)c1-c1cnn(CCC(C)C)c1 [Example 50, 7-{4-methyl-3-[1-(3-methylbutyl)-1H-pyrazol-4-yl]pyridin-2-yl}quinoline]"
2,169 nM,"CC(C)C(O)Cn1cc(-c2ccc(C#N)nc2-c2ccc3cccnc3c2)cn1 (stereo not drawn) [Example 46, 5-[1-(2-hydroxy-3-methylbutyl)-1H-pyrazol-4-yl]-6-quinolin-7-ylpyridine-2-carbonitrile]"
3,143 nM,"COc1cc2ccc(-c3nc(Cl)c(C)cc3-c3cnn(CCC(C)(C)OC)c3)cc2nn1 [Example 30, 7-{6-chloro-3-[1-(3-methoxy-3-methylbutyl)-1H-pyrazol-4-yl]-5-methylpyridin-2-yl}-3-methoxycinnoline]"
4,141 nM,"COc1cc2ccc(-c3nc(C)c(C)cc3-c3cnn(CCC(C)(C)OC)c3)cc2nn1 [Example 34, 3-methoxy-7-{3-[1-(3-methoxy-3-methylbutyl)-1H-pyrazol-4-yl]-5,6-dimethylpyridin-2-yl}cinnoline]"
5,131 nM,"COc1cc2ccc(-c3ncc(Cl)cc3-c3cnn(CCC(C)C)c3)cc2nn1 [Example 53, 7-{5-chloro-3-[1-(3-methylbutyl)-1H-pyrazol-4-yl]pyridin-2-yl}-3-methoxycinnoline]"
6,92 nM,"Cc1ccc2ccc(-c3nc(C#N)ccc3-c3cnn(CC(C)(C)C)c3)cc2n1 [Example 39, 5-[1-(2,2-dimethylpropyl)-1H-pyrazol-4-yl]-6-(2-methylquinolin-7-yl)pyridine-2-carbonitrile]"
7,84 nM,"CC(C)CCn1cc(-c2ccc(C(F)(F)F)nc2-c2ccc3cccnc3c2)cn1 [Example 49, 7-{3-[1-(3-methylbutyl)-1H-pyrazol-4-yl]-6-(trifluoromethyl)pyridin-2-yl}quinoline]"
8,72 nM,"N#Cc1ccc(-c2cnn(CC3CC34CC4)c2)c(-c2ccc3cccnc3c2)n1 (stereo not drawn) [Example 29, 6-quinolin-7-yl-5-[1-(spiro [2.2]pent-1-ylmethyl)-1H-pyrazol-4-yl]pyridine-2-carbonitrile]"
9,60 nM,"COc1cc2ccc(-c3nc(C#N)ccc3-c3cnn(CC4(C(F)(F)F)CC4)c3)cc2nn1 [Example 45, 6-(3-methoxycinnolin-7-yl)-5-(1-{[1-(trifluoromethyl)cyclopropyl]methyl}-1H-pyrazol-4-yl)pyridine-2-carbonitrile]"
10,14 nM,"COc1cc2ccc(-c3nc(C)ccc3-c3cnn(CCC(C)(C)F)c3F)cc2nn1 [Example 36, 7-{3-[5-fluoro-1-(3-fluoro-3-methylbutyl)-1H-pyrazol-4-yl]-6-methylpyridin-2-yl}-3-methoxycinnoline]"
